Laboratory results reported in patent US20030186817A1, “SUBSTITUTED 2,4-DIAMINO-1,3,5-TRIAZINES, PROCESSES FOR THEIR PREPARATION AND THEIR USE AS HERBICIDES AND PLANT GROWTH REGULATORS” (priority 1998, published 2003).

Each molecule was assayed on Stellaria media, Amaranthus retroflexus, Sinapis avreuse, Avena fatura, Lolium multiflorum and Setaria viridis (assay: Pre-emergence action against weeds (greenhouse pot test, visual rating)). Conditions: application rate of 3.0 kg or less of active substance per hectare, trial period of 3 to 4 weeks.
Assay type: in vivo
Source text: Seeds of mono- and dicotyledonous weed plants are placed in sandy loam soil in cardboard pots and covered with soil. The novel compounds, formulated as wettable powders or emulsion concentrates, are then applied to the surface of the soil cover in the form of an aqueous suspension or emulsion at an application rate of from 600 to 800 l of water/ha (converted), in various dosages. After the treatment, the pots are placed in a greenhouse and kept under good growth conditions for the weeds. After the test plants have emerged after a trial period of 3 to 4 weeks, the damage to the plants or the negative effect on emergence is rated visually by comparison with untreated controls. As shown by the test results, the novel compounds have good herbicidal pre-emergence activity against a broad spectrum of weed grasses and broad-leaved weeds.
`Cc1cccc(OCCC(C)Nc2nc(N)nc(C(F)(F)C(F)F)n2)c1` (centres unmarked) [Example 326] was tested, and the “herbicidal activity pre-emergence (damage to the plants or negative effect on emergence, rated visually)” value (“herbicidal activity pre-emergence” for short) was “good and in most cases very good herbicidal activity”. In the case of `CCC(CCOc1ccccc1)Nc1nc(N)nc(C(C)C)n1` (centres unmarked) [Example 231], the “herbicidal activity pre-emergence” value is reported as “good and in most cases very good herbicidal activity”. In the case of `CCC(CCOc1cccc(F)c1)Nc1nc(N)nc(C(C)C)n1` (centres unmarked) [Example 381], the “herbicidal activity pre-emergence” value is reported as “good and in most cases very good herbicidal activity”. `CCC(CCOc1cccc(Cl)c1)Nc1nc(N)nc(C(C)(C)F)n1` (centres unmarked) [Example 380] was tested, and the “herbicidal activity pre-emergence” value was “good and in most cases very good herbicidal activity”. `CC(CCOc1cccc(F)c1)Nc1nc(N)nc(C(C)C)n1` (centres unmarked) [Example 300] was tested, and the “herbicidal activity pre-emergence” value was “good and in most cases very good herbicidal activity”. `Cc1cccc(COCC(C)Nc2nc(N)nc(C(C)(C)F)n2)c1` (centres unmarked) [Example 120] was tested, and the “herbicidal activity pre-emergence” value was “good and in most cases very good herbicidal activity”. With `CCC(CCOc1cccc(C)c1)Nc1nc(N)nc(C(C)(C)F)n1` (centres unmarked) [Example 245] the “herbicidal activity pre-emergence” value was “good and in most cases very good herbicidal activity”. In the case of `CCC(COCCOc1ccccc1)Nc1nc(N)nc(C(C)C)n1` (centres unmarked) [Example 1345], the “herbicidal activity pre-emergence” value is reported as “good and in most cases very good herbicidal activity”. In the case of `Cc1cccc(OCCCC(Nc2nc(N)nc(C(C)(C)F)n2)C2CC2)c1` (centres unmarked) [Example 582], the “herbicidal activity pre-emergence” value is reported as “good and in most cases very good herbicidal activity”. `CCC(CCOc1cc(F)cc(F)c1)Nc1nc(N)nc(C(C)C)n1` (centres unmarked) [Example 305] was tested, and the “herbicidal activity pre-emergence” value was “good and in most cases very good herbicidal activity”. `CC(F)c1nc(N)nc(NCC(=O)NCc2ccccc2)n1` (centres unmarked) [Example 930] was tested, and the “herbicidal activity pre-emergence” value was “good and in most cases very good herbicidal activity”. `CC(CCCCOc1ccccc1)Nc1nc(N)nc(C(C)F)n1` (centres unmarked) [Example 626] was tested, and the “herbicidal activity pre-emergence” value was “good and in most cases very good herbicidal activity”. With `CCC(CCCOc1ccccc1)Nc1nc(N)nc(C(C)C)n1` (centres unmarked) [Example 510] the “herbicidal activity pre-emergence” value was “good and in most cases very good herbicidal activity”. `Nc1nc(NC(CCCCOc2ccccc2)C2CC2)nc(C(F)(F)C(F)F)n1` (centres unmarked) [Example 645] was tested, and the “herbicidal activity pre-emergence” value was “good and in most cases very good herbicidal activity”. `CC(C)(F)c1nc(N)nc(NCC=NOCc2ccccc2)n1` [Example 1252] was tested, and the “herbicidal activity pre-emergence” value was “good and in most cases very good herbicidal activity”. In the case of `CCC(COCCOc1cccc(Cl)c1)Nc1nc(N)nc(C(C)(C)F)n1` (centres unmarked) [Example 1364], the “herbicidal activity pre-emergence” value is reported as “good and in most cases very good herbicidal activity”. For `Cc1cccc(CNC(=O)C(C)Nc2nc(N)nc(C(C)C)n2)c1` (centres unmarked) [Example 1005], the “herbicidal activity pre-emergence” value was “good and in most cases very good herbicidal activity”. In the case of `CC(C)c1nc(N)nc(NCC(=O)NCc2ccccc2)n1` [Example 987], the “herbicidal activity pre-emergence” value is reported as “good and in most cases very good herbicidal activity”. With `CC(CCCOc1ccccc1)Nc1nc(N)nc(C(C)C)n1` (centres unmarked) [Example 531] the “herbicidal activity pre-emergence” value was “good and in most cases very good herbicidal activity”. In the case of `Cc1cc(C)cc(CON=CCNc2nc(N)nc(C(C)F)n2)c1` (centres unmarked) [Example 1234], the “herbicidal activity pre-emergence” value is reported as “good and in most cases very good herbicidal activity”. With `Cc1cccc(CNC(=O)C(C)Nc2nc(N)nc(C(C)(C)F)n2)c1` (centres unmarked) [Example 926] the “herbicidal activity pre-emergence” value was “good and in most cases very good herbicidal activity”. `CC(CCCOc1ccccc1)Nc1nc(N)nc(C(C)(C)F)n1` (centres unmarked) [Example 501] was tested, and the “herbicidal activity pre-emergence” value was “good and in most cases very good herbicidal activity”. For `CCC(CCOc1ccccc1)Nc1nc(N)nc(C(F)(F)C(F)F)n1` (centres unmarked) [Example 394], the “herbicidal activity pre-emergence” value was “good and in most cases very good herbicidal activity”. In the case of `CC(C)c1nc(N)nc(NC(CCCOc2ccccc2)C2CC2)n1` (centres unmarked) [Example 554], the “herbicidal activity pre-emergence” value is reported as “good and in most cases very good herbicidal activity”. In the case of `CC(CCCCOc1ccccc1)Nc1nc(N)nc(C(C)(C)F)n1` (centres unmarked) [Example 609], the “herbicidal activity pre-emergence” value is reported as “good and in most cases very good herbicidal activity”. With `CCC(CCCOc1ccccc1)Nc1nc(N)nc(C(C)(C)F)n1` (centres unmarked) [Example 490] the “herbicidal activity pre-emergence” value was “good and in most cases very good herbicidal activity”.

What follows are molecules tested on Cyperus iria and Echinocloa crus-galli (assay: Action on weeds in rice (paddy rice conditions, visual rating)). Conditions: dammed height of water 2-3 cm, about three weeks after application. Note: test concentration or dose not given here.
Assay type: in vivo
Source text: Typical rice weeds such as Echinocloa crus galli and Cyperus iria are cultivated in a greenhouse under paddy rice conditions ([…] height of water: 2-3 cm). After the treatment, the test plants are set up in a greenhouse under optimum growth conditions and are maintained in this way under these conditions throughout the test period. About three weeks after application, evaluation is made by visual rating of the damage to the plants by comparison with untreated controls.
In the case of `Cc1cccc(OCCC(C)Nc2nc(N)nc(C(F)(F)C(F)F)n2)c1` (centres unmarked) [Example 326], the “herbicidal activity against rice weeds (visual rating of damage)” value (“herbicidal activity against rice weeds” below) is reported as “very good herbicidal activity”. `CCC(CCOc1ccccc1)Nc1nc(N)nc(C(C)C)n1` (centres unmarked) [Example 231] was tested, and the “herbicidal activity against rice weeds” value was “very good herbicidal activity”. `CCC(CCOc1cccc(F)c1)Nc1nc(N)nc(C(C)C)n1` (centres unmarked) [Example 381] was tested, and the “herbicidal activity against rice weeds” value was “very good herbicidal activity”. `CCC(CCOc1cccc(Cl)c1)Nc1nc(N)nc(C(C)(C)F)n1` (centres unmarked) [Example 380] was tested, and the “herbicidal activity against rice weeds” value was “very good herbicidal activity”. With `CC(CCOc1cccc(F)c1)Nc1nc(N)nc(C(C)C)n1` (centres unmarked) [Example 300] the “herbicidal activity against rice weeds” value was “very good herbicidal activity”. In the case of `Cc1cccc(COCC(C)Nc2nc(N)nc(C(C)(C)F)n2)c1` (centres unmarked) [Example 120], the “herbicidal activity against rice weeds” value is reported as “very good herbicidal activity”. With `CCC(CCOc1cccc(C)c1)Nc1nc(N)nc(C(C)(C)F)n1` (centres unmarked) [Example 245] the “herbicidal activity against rice weeds” value was “very good herbicidal activity”. For `CCC(COC(=O)c1ccccc1OC(C)=O)Nc1nc(N)nc(C(C)C)n1` (centres unmarked) [Example 46], the “herbicidal activity against rice weeds” value was “very good herbicidal activity”. With `CCC(CCOc1ccccc1)Nc1nc(N)nc(C(F)(F)C(F)F)n1` (centres unmarked) [Example 394] the “herbicidal activity against rice weeds” value was “very good herbicidal activity”.

The molecules below were run on Stellaria media, Amaranthus retroflexus, Sinapis avreuse, Avena fatura, Lolium multiflorum and Setaria viridis (assay: Post-emergence action against weeds (greenhouse pot test, visual rating)). Conditions: three-leaf stage, application rate of 3.0 kg or less of active substance per hectare, 3 to 4 weeks in greenhouse.
Assay type: in vivo
Experimental: Seeds of mono- and dicotyledonous weeds are placed in sandy loam soil in cardboard pots, covered with soil and cultivated in a greenhouse under good growth conditions. Two to three weeks after sowing, the test plants are treated at the three-leaf stage. The novel compounds, formulated as wettable powders or emulsion concentrates, are sprayed in various dosages onto the green parts of the plant at an application rate of from 600 to 8001 of water/ha (converted), and, after the test plants have remained in the greenhouse for 3 to 4 weeks under optimum growth conditions, the action of the preparations is rated visually by comparison with untreated controls. The novel compositions also have good post-emergence herbicidal activity against a broad spectrum of economically important weed grasses and broad-leaved weeds.
`Cc1cccc(OCCC(C)Nc2nc(N)nc(C(F)(F)C(F)F)n2)c1` (centres unmarked) [Example 326] was tested, and the “herbicidal activity post-emergence (rated visually)” value (“herbicidal activity post-emergence” below) was “good and in most cases very good herbicidal activity”. In the case of `CCC(CCOc1ccccc1)Nc1nc(N)nc(C(C)C)n1` (centres unmarked) [Example 231], the “herbicidal activity post-emergence” value is reported as “good and in most cases very good herbicidal activity”. In the case of `CCC(CCOc1cccc(F)c1)Nc1nc(N)nc(C(C)C)n1` (centres unmarked) [Example 381], the “herbicidal activity post-emergence” value is reported as “good and in most cases very good herbicidal activity”. For `CCC(CCOc1cccc(Cl)c1)Nc1nc(N)nc(C(C)(C)F)n1` (centres unmarked) [Example 380], the “herbicidal activity post-emergence” value was “good and in most cases very good herbicidal activity”. In the case of `CCC(CCOc1cccc(C)c1)Nc1nc(N)nc(C(C)(C)F)n1` (centres unmarked) [Example 245], the “herbicidal activity post-emergence” value is reported as “good and in most cases very good herbicidal activity”. With `CCC(COCCOc1ccccc1)Nc1nc(N)nc(C(C)C)n1` (centres unmarked) [Example 1345] the “herbicidal activity post-emergence” value was “good and in most cases very good herbicidal activity”. `Cc1cccc(OCCCC(Nc2nc(N)nc(C(C)(C)F)n2)C2CC2)c1` (centres unmarked) [Example 582] was tested, and the “herbicidal activity post-emergence” value was “good and in most cases very good herbicidal activity”. In the case of `CCC(CCOc1cc(F)cc(F)c1)Nc1nc(N)nc(C(C)C)n1` (centres unmarked) [Example 305], the “herbicidal activity post-emergence” value is reported as “good and in most cases very good herbicidal activity”. For `CC(F)c1nc(N)nc(NCC(=O)NCc2ccccc2)n1` (centres unmarked) [Example 930], the “herbicidal activity post-emergence” value was “good and in most cases very good herbicidal activity”. In the case of `CC(CCCCOc1ccccc1)Nc1nc(N)nc(C(C)F)n1` (centres unmarked) [Example 626], the “herbicidal activity post-emergence” value is reported as “good and in most cases very good herbicidal activity”. In the case of `CCC(CCCOc1ccccc1)Nc1nc(N)nc(C(C)C)n1` (centres unmarked) [Example 510], the “herbicidal activity post-emergence” value is reported as “good and in most cases very good herbicidal activity”. For `Nc1nc(NC(CCCCOc2ccccc2)C2CC2)nc(C(F)(F)C(F)F)n1` (centres unmarked) [Example 645], the “herbicidal activity post-emergence” value was “good and in most cases very good herbicidal activity”. With `CC(C)(F)c1nc(N)nc(NCC=NOCc2ccccc2)n1` [Example 1252] the “herbicidal activity post-emergence” value was “good and in most cases very good herbicidal activity”. For `CCC(COCCOc1cccc(Cl)c1)Nc1nc(N)nc(C(C)(C)F)n1` (centres unmarked) [Example 1364], the “herbicidal activity post-emergence” value was “good and in most cases very good herbicidal activity”. For `Cc1cccc(CNC(=O)C(C)Nc2nc(N)nc(C(C)C)n2)c1` (centres unmarked) [Example 1005], the “herbicidal activity post-emergence” value was “good and in most cases very good herbicidal activity”. `CCC(COC(=O)c1ccccc1OC(C)=O)Nc1nc(N)nc(C(C)C)n1` (centres unmarked) [Example 46] was tested, and the “herbicidal activity post-emergence” value was “good and in most cases very good herbicidal activity”. For `CC(C)c1nc(N)nc(NCC(=O)NCc2ccccc2)n1` [Example 987], the “herbicidal activity post-emergence” value was “good and in most cases very good herbicidal activity”. For `CC(CCCOc1ccccc1)Nc1nc(N)nc(C(C)C)n1` (centres unmarked) [Example 531], the “herbicidal activity post-emergence” value was “good and in most cases very good herbicidal activity”. With `Cc1cc(C)cc(CON=CCNc2nc(N)nc(C(C)F)n2)c1` (centres unmarked) [Example 1234] the “herbicidal activity post-emergence” value was “good and in most cases very good herbicidal activity”. In the case of `Cc1cccc(CNC(=O)C(C)Nc2nc(N)nc(C(C)(C)F)n2)c1` (centres unmarked) [Example 926], the “herbicidal activity post-emergence” value is reported as “good and in most cases very good herbicidal activity”. With `CC(CCCOc1ccccc1)Nc1nc(N)nc(C(C)(C)F)n1` (centres unmarked) [Example 501] the “herbicidal activity post-emergence” value was “good and in most cases very good herbicidal activity”. In the case of `CC(C)c1nc(N)nc(NC(CCCOc2ccccc2)C2CC2)n1` (centres unmarked) [Example 554], the “herbicidal activity post-emergence” value is reported as “good and in most cases very good herbicidal activity”. `CC(CCCCOc1ccccc1)Nc1nc(N)nc(C(C)(C)F)n1` (centres unmarked) [Example 609] was tested, and the “herbicidal activity post-emergence” value was “good and in most cases very good herbicidal activity”. With `CCC(CCCOc1ccccc1)Nc1nc(N)nc(C(C)(C)F)n1` (centres unmarked) [Example 490] the “herbicidal activity post-emergence” value was “good and in most cases very good herbicidal activity”.
